Reference: PubChem BioAssay (NCI)
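Exposure lasted 48 hours, with cells grown in 96-well plates and compounds tested at five concentrations. GI50 is the concentration that inhibits growth by half. TGI is the concentration that stops growth completely.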

Assays:
Test in all cases: NCI tumour cell line growth inhibition, 48 h
[1] = system: COLO 205 colon
[2] = system: HT29 colon
[3] = system: A549 NSCLC
[4] = system: EKVX NSCLC
[5] = system: SN12C renal
[6] = system: NCI-H460 lung
[7] = system: OVCAR-3 ovarian
[8] = system: UACC-257 melanoma
[9] = system: MDA-MB-435
[10] = system: M14 melanoma
[11] = system: UACC-62 melanoma
[12] = system: SR leukemia
[13] = system: NCI-H522 lung
[14] = system: LOX IMVI melanoma
[15] = system: HCT-15 colon
[16] = system: SNB-19 CNS
[17] = system: SK-MEL-5 melanoma
[18] = system: MDA-MB-231 breast
[19] = system: ACHN renal
[20] = system: MALME-3M melanoma
[21] = system: TK-10 renal
[22] = system: MOLT-4 leukemia
[23] = system: SF-268 CNS
[24] = system: IGROV1 ovarian
[25] = system: SF-295 CNS
[26] = system: HOP-92 NSCLC
[27] = system: KM12 colon
[28] = system: U251 CNS
[29] = system: OVCAR-8 ovarian
[30] = system: PC-3 prostate
[31] = system: 786-0 renal
[32] = system: CAKI-1 renal
[33] = system: NCI-H226 lung
[34] = system: K-562 leukemia
[35] = system: SK-OV-3 ovarian
[36] = system: A498 renal
[37] = system: RPMI-8226 leukemia
[38] = system: SW-620 colon
[39] = system: CCRF-CEM leukemia
[40] = system: SF-539 CNS
[41] = system: SNB-75 CNS
[42] = system: T-47D breast
[43] = system: HS 578T breast
[44] = system: NCI-H23 lung
[45] = system: HCC-2998 colon
[46] = system: OVCAR-5 ovarian
[47] = system: HL-60(TB) leukemia
[48] = system: UO-31 renal
[49] = system: SK-MEL-2 melanoma
[50] = system: RXF 393 renal
[51] = system: HOP-62 NSCLC
[52] = system: HCT-116 colon
[53] = system: SK-MEL-28 melanoma
[54] = system: NCI/ADR-RES ovarian
[55] = system: OVCAR-4 ovarian
[56] = system: MCF7 breast
[57] = system: DU-145 prostate
[58] = system: BT-549 breast

## O=C(Nc1ccc(-n2ccc3c(NC(=O)c4ccccc4)nccc32)cc1)c1cccc(C(F)(F)F)c1
[1]
  GI50: 1.42 µM
  TGI: 10.3 µM
[2]
  GI50: 0.243 µM
  TGI: 4.02 µM
[3]
  GI50: 0.418 µM
  TGI: 9.4 µM
[4]
  GI50: 4.33 µM
  TGI: > 50 µM
[5]
  GI50: 1.67 µM
  TGI: > 35.6 µM
[6]
  GI50: 0.119 µM
  TGI: 5.38 µM
[7]
  GI50: 1 µM
  TGI: 7.89 µM
[8]
  GI50: 2.09 µM
  TGI: > 21.6 µM
[9]
  GI50: 0.657 µM
  TGI: 4.98 µM
[10]
  GI50: 1.38 µM
  TGI: 9.06 µM
[11]
  GI50: 0.714 µM
  TGI: 8.48 µM
[12]
  GI50: 0.0753 µM
  TGI: > 18 µM
[13]
  GI50: 1.07 µM
  TGI: > 13.5 µM
[14]
  GI50: 0.182 µM
  TGI: 5.4 µM
[15]
  GI50: 0.0428 µM
  TGI: 6.99 µM
[16]
  GI50: 0.729 µM
  TGI: 20.1 µM
[17]
  GI50: 0.194 µM
  TGI: 6.65 µM
[18]
  GI50: 2.88 µM
  TGI: 14.7 µM
[19]
  GI50: 0.624 µM
  TGI: 14.7 µM
[20]
  GI50: 2.04 µM
  TGI: 12.2 µM
[21]
  GI50: 1.53 µM
  TGI: 12.6 µM
[22]
  GI50: 0.29 µM
  TGI: > 25.9 µM
[23]
  GI50: 0.473 µM
  TGI: 25.6 µM
[24]
  GI50: 1.4 µM
  TGI: > 50 µM
[25]
  GI50: 0.392 µM
  TGI: 7.99 µM
[26]
  GI50: 1.96 µM
  TGI: > 50 µM
[27]
  GI50: 0.4 µM
  TGI: 7.64 µM
[28]
  GI50: 0.158 µM
  TGI: 7.09 µM
[29]
  GI50: 0.393 µM
  TGI: 10.3 µM
[30]
  GI50: 1.29 µM
  TGI: 27.3 µM
[31]
  GI50: 0.728 µM
  TGI: 9.14 µM
[32]
  GI50: 0.326 µM
  TGI: 7.92 µM
[33]
  GI50: 2.56 µM
  TGI: > 50 µM
[34]
  GI50: 0.231 µM
  TGI: > 23.1 µM
[35]
  GI50: 0.879 µM
  TGI: 15.4 µM
[36]
  GI50: 0.905 µM
  TGI: 15.6 µM
[37]
  GI50: 0.614 µM
  TGI: 14.2 µM
[38]
  GI50: 0.381 µM
  TGI: 7.32 µM
[39]
  GI50: 0.313 µM
  TGI: 13.2 µM
[40]
  GI50: 0.47 µM
  TGI: 11.5 µM
[41]
  GI50: 0.707 µM
  TGI: 6.59 µM
[42]
  GI50: 4.66 µM
  TGI: 30.9 µM
[43]
  GI50: 1.42 µM
  TGI: 13.1 µM
[44]
  GI50: 3.88 µM
  TGI: > 36.1 µM
[45]
  GI50: 1.71 µM
  TGI: 11.6 µM
[46]
  GI50: 3.07 µM
  TGI: > 50 µM
[47]
  GI50: 0.685 µM
  TGI: 15.3 µM
[48]
  GI50: 1.83 µM
  TGI: 15.9 µM
[49]
  GI50: 1.29 µM
  TGI: 7.27 µM
[50]
  GI50: 1.02 µM
  TGI: 5.97 µM
[51]
  GI50: 2.02 µM
  TGI: 14.5 µM
[52]
  GI50: 0.177 µM
  TGI: 6.92 µM
[53]
  GI50: 2.4 µM
  TGI: 11 µM
[54]
  GI50: 0.724 µM
  TGI: 11.9 µM
[55]
  GI50: 2.7 µM
  TGI: 22.6 µM
[56]
  GI50: 0.413 µM
  TGI: 7.94 µM
[57]
  GI50: 1.64 µM
  TGI: 9.71 µM
[58]
  GI50: 2.03 µM
  TGI: 22.3 µM

## Cc1ccncc1N1CCN(c2ccnc(Cl)c2)C1=O
[1]
  GI50: > 100 µM
  TGI: > 100 µM
[2]
  GI50: > 100 µM
  TGI: > 100 µM
[3]
  GI50: > 100 µM
  TGI: > 100 µM
[4]
  GI50: > 100 µM
  TGI: > 100 µM
[5]
  GI50: > 100 µM
  TGI: > 100 µM
[6]
  GI50: > 100 µM
  TGI: > 100 µM
[7]
  GI50: > 100 µM
  TGI: > 100 µM
[8]
  GI50: > 100 µM
  TGI: > 100 µM
[9]
  GI50: > 100 µM
  TGI: > 100 µM
[10]
  GI50: > 100 µM
  TGI: > 100 µM
[11]
  GI50: > 100 µM
  TGI: > 100 µM
[12]
  GI50: > 100 µM
  TGI: > 100 µM
[13]
  GI50: > 100 µM
  TGI: > 100 µM
[14]
  GI50: > 100 µM
  TGI: > 100 µM
[15]
  GI50: > 100 µM
  TGI: > 100 µM
[16]
  GI50: > 100 µM
  TGI: > 100 µM
[17]
  GI50: > 100 µM
  TGI: > 100 µM
[18]
  GI50: > 100 µM
  TGI: > 100 µM
[19]
  GI50: > 100 µM
  TGI: > 100 µM
[20]
  GI50: > 100 µM
  TGI: > 100 µM
[21]
  GI50: > 100 µM
  TGI: > 100 µM
[22]
  GI50: > 100 µM
  TGI: > 100 µM
[23]
  GI50: > 100 µM
  TGI: > 100 µM
[24]
  GI50: > 100 µM
  TGI: > 100 µM
[25]
  GI50: > 100 µM
  TGI: > 100 µM
[26]
  GI50: > 100 µM
  TGI: > 100 µM
[27]
  GI50: > 100 µM
  TGI: > 100 µM
[28]
  GI50: > 100 µM
  TGI: > 100 µM
[29]
  GI50: > 100 µM
  TGI: > 100 µM
[30]
  GI50: > 100 µM
  TGI: > 100 µM
[31]
  GI50: > 100 µM
  TGI: > 100 µM
[32]
  GI50: > 100 µM
  TGI: > 100 µM
[33]
  GI50: > 100 µM
  TGI: > 100 µM
[34]
  GI50: > 100 µM
  TGI: > 100 µM
[35]
  GI50: > 100 µM
  TGI: > 100 µM
[36]
  GI50: > 100 µM
  TGI: > 100 µM
[37]
  GI50: > 100 µM
  TGI: > 100 µM
[38]
  GI50: > 100 µM
  TGI: > 100 µM
[39]
  GI50: > 100 µM
  TGI: > 100 µM
[40]
  GI50: > 100 µM
  TGI: > 100 µM
[41]
  GI50: > 100 µM
  TGI: > 100 µM
[42]
  GI50: > 100 µM
  TGI: > 100 µM
[43]
  GI50: > 100 µM
  TGI: > 100 µM
[44]
  GI50: > 100 µM
  TGI: > 100 µM
[45]
  GI50: > 100 µM
  TGI: > 100 µM
[46]
  GI50: > 100 µM
  TGI: > 100 µM
[47]
  GI50: > 100 µM
  TGI: > 100 µM
[48]
  GI50: > 100 µM
  TGI: > 100 µM
[49]
  GI50: > 100 µM
  TGI: > 100 µM
[50]
  GI50: > 100 µM
  TGI: > 100 µM
[51]
  GI50: > 100 µM
  TGI: > 100 µM
[52]
  GI50: > 100 µM
  TGI: > 100 µM
[53]
  GI50: > 100 µM
  TGI: > 100 µM
[54]
  GI50: > 100 µM
  TGI: > 100 µM
[55]
  GI50: > 100 µM
  TGI: > 100 µM
[56]
  GI50: > 100 µM
  TGI: > 100 µM
[57]
  GI50: > 100 µM
  TGI: > 100 µM
[58]
  GI50: > 100 µM
  TGI: > 100 µM
